Reference: patent US20100305159A1, “CRYSTALLINE FORM OF PIPERIDINE COMPOUND” (MITSUBISHI TANABE PHARMA CORPORATION, priority 2007, published 2010)
Entries after “also recorded” stand apart in the source; their conditions may differ.

Tests used:
[1] = molecular target: T1, human neurokinin-1 receptor (Homo sapiens, UniProt P25103); experiment: Neurokinin-1 (NK1) receptor binding inhibitory action, [3H](Sar9, Met11(O2)) Substance P on IM-9 cells
T1 construct: Human lymphoblastoma IM-9 cells (5 10^6 cell/tube) were reacted with 0.3 nM; endogenous in cells; host or cells: human lymphoblastoma IM-9 cells
Source text: Measurements on the crystalline form of the present invention can be carried out, for example, according to the method described in European Journal of Pharmacology, vol. 254, pages 221-227 (1994) with respect to a neurokinin-1 receptor binding action, and according to the method described in European Journal of Pharmacology, vol. 265, pages 179-183 (1994) with respect to an action against a neurokinin-1 receptor […] inducing action, further according to the method described in Journal of Urology, vol.
Device: Dynamic Vapor Sorption device DVS-1 manufactured by Surface Measurement Systems, UK Amount of specimen: 10 mg Measured temperature: 25° C. Relative humidity range: 0 to 90% Experimental example 1 Neurokinin-1 (NK1) receptor binding inhibitory action Human lymphoblastoma IM-9 cells (5 10^6 cell/tube) were reacted with 0.3 nM [^3H] (Sar^9, Met^11 (O2)) Substance P and the prepared Type II crystalline form of (2R,4S)-1-{N-(3,5-bistrifluoromethylbenzyl)-N-methyl}aminocarbonyl-2-(4-fluoro-2-methylphenyl)-4-(2-hydroxyethylaminocarboxyloxy)-piperidine in 0.5 ml of 50 mM Tris-HCl (pH 7.4, 25° C.) containing 150 mM NaCl, 3 mM MnCl2, 40 μg/ml bacitracin, 4 μg/ml Leupeptin, 4 μg/ml Chymostatin, 4 μg/ml Phosphoramidon and 0.02% bovine serum albumin at room temperature for 60 minutes according to the method described in European Journal of Pharmacology, vol. 254, pp. 221-227 (1994). The reaction mixture was subjected to suction filtration with a GF/C glass filter which had previously been treated with 0.3% polyethyleneimine, washed with 0.3 ml of ice-cold reaction buffer containing no bovine serum albumin and various kinds of protein decomposition enzyme inhibitors twice, and radioactivity (dpm) on the filter was measured by a liquid scintillation counter. A specific binding amount was obtained by subtracting non-specific binding amount (L-703606 (10 μM) having NK1 receptor antagonistic action) from a total binding amount.

[2] = Stability at 40° C./75% RH in a glass bottle with an open state for 4 weeks; format: physicochemical
Method: Stabilities of crystalline forms of Type I, Type II and Type VII, and amorphous of (2R,4S)-1-{N-(3,5-bistri-fluoromethylbenzyl)-N-methyl}aminocarbonyl-2-(4-fluoro-2-methylphenyl)-4-(2-hydroxyethylaminocarboxyloxy)piperidine were observed under the conditions of at 40° C./75% RH in a glass bottle with an open state for 4 weeks. […] Accordingly, improvement in stability according to crystallization could be confirmed.

[3] = Hygroscopicity by Dynamic Vapor Sorption; format: physicochemical; settings: DVS-1, 25° C., relative humidity range 0 to 90%, 10 mg
Method: With regard to Type I and Type II crystalline forms of (2R,4S)-1-{N-(3,5-bistrifluoromethylbenzyl)-N-methyl}-aminocarbonyl-2-(4-fluoro-2-methylphenyl)-4-(2-hydroxy-ethylaminocarboxyloxy)piperidine, hygroscopicity was measured according to the following mentioned conditions.
Device: Dynamic Vapor Sorption device DVS-1 manufactured by Surface Measurement Systems, UK Amount of specimen: 10 mg Measured temperature: 25° C. Relative humidity range: 0 to 90% Experimental example 1 Neurokinin-1 (NK1) receptor binding inhibitory action Human lymphoblastoma IM-9 cells (5 10^6 cell/tube) were reacted with 0.3 nM [^3H] […] The reaction mixture was subjected to suction filtration with a GF/C glass filter which had previously been treated with 0.3% polyethyleneimine, washed with 0.3 ml of ice-cold reaction buffer containing no bovine serum albumin and various kinds of protein decomposition enzyme inhibitors twice, and radioactivity (dpm) on the filter was measured by a liquid scintillation counter. […]

T1 sequence (P25103 whole entry): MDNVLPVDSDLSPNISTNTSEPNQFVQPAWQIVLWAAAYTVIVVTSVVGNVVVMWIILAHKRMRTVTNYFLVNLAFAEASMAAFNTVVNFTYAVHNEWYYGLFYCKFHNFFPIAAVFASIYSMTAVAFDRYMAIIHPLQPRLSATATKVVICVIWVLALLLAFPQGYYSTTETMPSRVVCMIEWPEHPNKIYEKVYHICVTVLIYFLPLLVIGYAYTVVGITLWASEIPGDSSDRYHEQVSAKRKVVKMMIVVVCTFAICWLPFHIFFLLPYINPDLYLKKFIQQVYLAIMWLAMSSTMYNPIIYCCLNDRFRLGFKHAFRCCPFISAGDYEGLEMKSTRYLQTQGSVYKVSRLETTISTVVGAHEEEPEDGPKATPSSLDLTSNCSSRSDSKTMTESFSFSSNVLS

SMILES | IC50 ([1]; Human lymphoblastoma IM-9 cells, 0.3 nM [3H](Sar9, Met11(O2)) Substance P, room temperature 60 minutes, read-out: IC50 value, NK1 receptor binding inhibition) [nM] | Ki ([1]; Human lymphoblastoma IM-9 cells, 0.3 nM [3H](Sar9, Met11(O2)) Substance P, room temperature 60 minutes, read-out: Ki value, NK1 receptor binding inhibition) [nM] | neurokinin-1 receptor binding action (in words) ([1]; human NK1 receptor, IM-9 cells) | change in appearance [2] | hygroscopicity (change in weight under high humidity conditions) [3] | moisture absorption [2]
Cc1cc(F)ccc1[C@H]1C[C@@H](OC(=O)NCCO)CCN1C(=O)N(C)Cc1cc(C(F)(F)F)cc(C(F)(F)F)c1 [Type II, (2R,4S)-1-{N-(3,5-bistrifluoromethylbenzyl)-N-methyl}aminocarbonyl-2-(4-fluoro-2-methylphenyl)-4-(2-hydroxyethylaminocarbonyloxy)piperidine] | 4.59 | 2.22 | inhibited said Substance P with concentration-dependently; also recorded: showed a human neurokinin-1 receptor binding action with concentration-dependently | no change in appearance | no hygroscopicity | –
Cc1cc(F)ccc1[C@H]1C[C@@H](OC(=O)NCCO)CCN1C(=O)N(C)Cc1cc(C(F)(F)F)cc(C(F)(F)F)c1 [Type I, (2R,4S)-1-{N-(3,5-bistrifluoromethylbenzyl)-N-methyl}aminocarbonyl-2-(4-fluoro-2-methylphenyl)-4-(2-hydroxyethylaminocarbonyloxy)piperidine] | – | – | – | no change in appearance | no hygroscopicity | –
Cc1cc(F)ccc1[C@H]1C[C@@H](OC(=O)NCCO)CCN1C(=O)N(C)Cc1cc(C(F)(F)F)cc(C(F)(F)F)c1 [amorphous, (2R,4S)-1-{N-(3,5-bistrifluoromethylbenzyl)-N-methyl}aminocarbonyl-2-(4-fluoro-2-methylphenyl)-4-(2-hydroxyethylaminocarbonyloxy)piperidine] | – | – | – | marked change in appearance (white powder→white lump) | – | moisture absorption was admitted
Cc1cc(F)ccc1[C@H]1C[C@@H](OC(=O)NCCO)CCN1C(=O)N(C)Cc1cc(C(F)(F)F)cc(C(F)(F)F)c1 [Type VII, (2R,4S)-1-{N-(3,5-bistrifluoromethylbenzyl)-N-methyl}aminocarbonyl-2-(4-fluoro-2-methylphenyl)-4-(2-hydroxyethylaminocarbonyloxy)piperidine] | – | – | – | no change in appearance | – | –
